Test results as given in US9433608B2 (priority 2013, dated 2016).

What was measured:
Details in all cases: in vivo
[1] = test system: 12 mm right basal ganglia infarct (acute lacunar infarct); design: species or system human
[2] = test system: subacute temporal lobe infarct with encephalomalacia; design: species or system human
[3] = test system: TIA (transient ischemic attack) symptoms

In the case of `CN1C(=O)CN=C(c2ccccc2)c2cc(Cl)ccc21` [diazepam, 7-chloro-1,3-dihydro-1-methyl-5-phenyl-1,4-benzodiazepin-2(3H)-one], the function after treatment [1] was “returned to pre-stroke function”, the “leg weakness, expansion of the infarct, symptoms” value [1] was “the weakness resolved and there was no further expansion of the infarct or worsening of symptoms” and the “mental clarity noted by the patient” value [2] was “clearing of fogginess”. For the same compound, the “vision in the right hemifield” value [2] was “unable to regain vision in the right hemifield”.
For `CC12CC3CC(C)(C1)CC(N)(C3)C2` [memantine, 3,5-dimethyladamantan-1-amine], the function after treatment [1] was “returned to pre-stroke function”, the “leg weakness, expansion of the infarct, symptoms” value [1] was “the weakness resolved and there was no further expansion of the infarct or worsening of symptoms” and the “mental clarity noted by the patient” value [2] was “clearing of fogginess”. For the same compound, the “vision in the right hemifield” value [2] was “unable to regain vision in the right hemifield”.
With `Cc1ncc2n1-c1ccc(Cl)cc1C(c1ccccc1F)=NC2` [midazolam, 8-chloro-6-(2-fluorophenyl)-1-methyl-4H-imidazo[1,5a][1,4]benzodiazepine] the “clinical state the next day” value [3] was “sitting talking to relatives, mentating better but could not swallow their own saliva”, the “effect on penumbra of injury” value [3] was “preventing expansion of the penumbra of injury” and the “sedation (side effect) on the second night” value [3] was “drowsy”. The “swallowing on the second night” value [3] was “could swallow their own saliva”.
